Earlier results as cited in patent publication US20030100472A1, “Detergent tablet compositions” (Unilever Home & Personal Care USA, Division of Conopco, Inc., priority 2001, published 2003).
Where two headings read alike, the source gives them in different places.

O=BO[O-].[Na+] [Sodium perborate anhydrous]
Water Solubility (g/100 g) (at 20° C., other materials): 3.7 g/100 g

O=P(O)(O)OP(=O)(O)OP(=O)(O)O [Sodium tripolyphosphate anhydrous]
Water Solubility (g/100 g) (at 20° C., other materials): 15 g/100 g

NC(N)=O [Urea]
Water Solubility (g/100 g) (grams of solid required to form a saturated solution in 100 grams of water at 20° C., highly water-soluble materials): >100 g/100 g
